Assay results reported in paper PMC1716192, “A Plant-Derived Morphinan as a Novel Lead Compound Active against Malaria Liver Stages” (PLoS Medicine, 2006).
“Also recorded” adds a separate entry of the source.

Key:
[1] = tested on: primary mouse hepatocytes; assay: In vitro assay for cell viability (neutral red), mouse hepatocytes; format: cell-based; conditions: 48 h drug exposure
Protocol: (§1) Primary hepatocytes of mice or humans were prepared as above and seeded in 96-well plates coated with collagen, at a density of 5 × 10^4 and 7 × 10^4 cells per well, respectively. Drugs were added to the culture medium, which was changed daily after 24 h or 48 h of incubation for mouse and human hepatocytes, respectively. After 48 h of drug exposure (mouse hepatocytes) or 5 d (human hepatocytes), 50 μl of neutral red (Sigma) at 0.02% in phosphate-buffered saline (PBS) were added per well and incubated for 24 additional hours. Cultures were then washed with PBS and the neutral red extracted with 1% SDS from viable cells and quantified by measuring the OD540 on a microplate autoreader photometer (BioTek Instruments, Winooski, Vermont, United States).
(§2) IC50 and TC50 were calculated by nonlinear regression using four-parameter logistic curves on the SigmaPlot 10.0 software (http://www.systat.com). Each IC50 or TC50 is expressed as a mean between two independent experiments, followed by the standard error of the mean.

[2] = tested on: primary human hepatocytes; assay: In vitro assay for cell viability (neutral red), human hepatocytes; format: cell-based; conditions: 5 d drug exposure
Protocol: as §1, §2

[3] = tested on: P. falciparum clone 3D7 (chloroquine sensitive) erythrocytic stages; assay: In vitro assay for P. falciparum blood stages inhibition, clone 3D7; format: cell-based
Protocol: (§3) P. falciparum clone 3D7 (chloroquine sensitive) and clone FCR3 (chloroquine resistant) erythrocytic stages were cultured as described, and drug antiplasmodial activity was assessed by the standard method with minor modifications. Briefly, the compounds tazopsine and NCP-tazopsine solubilized in DMSO were further diluted in RPMI before adding to parasite cultures (0.5% parasitemia, mainly young trophozoites, and 1.8% final hematocrit), in a 2-fold dilution series. Plates were maintained for 24 h at 37 °C in 5% CO2. Then 0.5 μCi of [^3H]-hypoxanthine was added to each well, and cultures were incubated for a further 24 h. The growth inhibition was determined by comparison of the radioactivity incorporated into the treated cultures with that into the control cultures, by liquid scintillation counting.

[4] = tested on: P. falciparum clone FCR3 (chloroquine resistant) erythrocytic stages; assay: In vitro assay for P. falciparum blood stages inhibition, clone FCR3; format: cell-based
Protocol: as §3

[5] = tested on: P. yoelii (265 BY strain) sporozoites; assay: In vivo assay: P. yoelii sporozoite challenge in mice; design: species or system Swiss mice
Protocol: All animal were kept and used in accordance with institutional guidelines and European regulations. Female 6-wk-old Swiss mice (René Janvier, Le Genest-Saint-Isle, France) weighing 24–31 g were randomly allotted to five groups. The drug to be tested was administered orally. Tazopsine was diluted in sterile water and NCP-tazopsine in sterile water with 10% of Tween 80 (Aldrich, Le Chesnay, France). The drugs were administrated on days −1, 0, +1, +2 (+40 h), and the mice challenged on day 0 by retro-orbital injection of P. yoelii (265 BY strain) sporozoites. Group 1 received 100 mg/kg/day of tazopsine (n = 5), and group 2 received sterile water at the same times (controls, n = 5); groups 1 and 2 were challenged with 4,000 sporozoites. Group 3 received 100 mg/kg/d of NCP-tazopsine (n = 5), group 4 received 200 mg/kg/d of NCP-tazopsine (n = 8), and group 5 received 10% Tween in sterile water (controls, n = 5); groups 3, 4, and 5 were challenged with 10,000 sporozoites. Parasites were enumerated by blinded microscopic examination of Giemsa-stained tail-blood smears collected from day 2 to day 23 postinoculation. A mouse was considered negative when no parasites could be observed in 20,000 red blood cells (50 fields under a 50× light microscope objective) on any day during the period of observation. The results presented were derived from two independent duplicate experiments.

P. yoelii blood stages = assay: In vivo assay: P. yoelii blood stages in mice
Protocol: In order to test for inhibitory activity against P. yoelii blood stages, four groups of five naive mice were inoculated (intraperitoneally) with 10^6 P. yoelii–infected red blood cells on day 0. Three hours later, one group was treated with tazopsine at 100 mg/kg, another with NCP-tazopsine at 200 mg/kg, whereas the other two groups acted as controls (respectively, water and 10% Tween 80). The doses were repeated daily until day +3. For the group treated with NCP- tazopsine and its control group, the animals were anesthetised 2 h following the administration of the last dose (day +3), and placed for 30 min over a cage with 100 female laboratory-bred A. stephensi. Oocysts were enumerated in 30 mosquito midguts dissected 8 d later, and the number of sporozoites in the salivary glands dissected from 30 insects was ascertained a further 7 d later. All the experiments were performed in two independent duplicates, and enumeration of parasites in blood smears and mosquitoes was conducted in a blinded fashion.

[6] = 100 mg/kg daily for 4 d oral, challenge with 4,000 P. yoelii sporozoites

Compound	TC50 [1] [µM]	TC50 [2]	IC50 ([3]; Plasmodium falciparum, 3D7) [µM]	IC50 ([4]; Plasmodium falciparum, FCR3) [µM]	extension of prepatent period over controls (nonprotected mice) ([5]; 100 mg/kg daily for 4 d oral, 4,000 sporozoites)	mice protected from infection [5, 6] [%]	mice that developed a blood stage parasitemia [5, 6] [%]	inhibition of the erythrocytic multiplication cycle (P. yoelii blood stages; 100 mg/kg daily, mice challenged with P. yoelii-infected blood (unpublished data))	oral dose above which toxic to mice (Oral toxicity in mice; given daily over 4 d)	effect on multiplication of cultured erythrocytic P. falciparum ([3]; 3D7 line, up to concentrations of 600 μM)	effect on multiplication of cultured erythrocytic P. falciparum ([4]; FCR3 line, up to concentrations of 600 μM)	extension of prepatent period over controls (nonprotected mice) ([5]; 100 mg/kg for 4 d oral, 10,000 sporozoites) [days]	mice protected from infection ([5]; 100 mg/kg for 4 d oral, challenge with 10,000 P. yoelii sporozoites) [%]	mice developing a blood stage infection / protection after sporozoite challenge ([5]; 200 mg/kg daily over 4 d oral, challenge with 10,000 P. yoelii sporozoites)	effect on blood stage parasite multiplication (P. yoelii blood stages; fully protective dose (200 mg/kg), mice inoculated with P. yoelii-infected blood (unpublished data))	toxicity to mice (Oral toxicity in mice; up to doses of 400 mg/kg for 4 d)
COC1=C2[C@H]3NCC[C@]2(C[C@H](O)[C@@H]1O)c1c(ccc(OC)c1O)[C@H]3O [Tazopsine, tazopsine]	43.7 ± 1.6	28.4 ± 4.3 µM	4.7 ± 0.9	5.7 ± 2.1	about 4 d	70	30	No significant inhibition	exceeding 100 mg/kg							
COC1=C2[C@@H]3[C@H](O)c4ccc(OC)c(O)c4[C@]2(CCN3C2CCCC2)C[C@H](O)[C@@H]1O [NCP-tazopsine, N-cyclopentyl-tazopsine]	150.5 ± 9.5	2,549.6 ± 307.6 μM								did not have any detectable effect	did not have any detectable effect	2	60	completely protected; also recorded: none of the mice developed a blood stage infection; also recorded: fully protected	no effect	not found to be toxic
